In patent US20230049576A1, “GLUTATHIONE-CONTAINING COMPOSITION” (priority 2019, published 2023):

Tests used:
thrombin = thrombin (Homo sapiens, UniProt P00734); assay: Measurement of thrombin activity (Rox prothrombin kit, chromogenic substrate, absorbance 405 nm); assay type: biochemical; conditions: glutathione 500 μg/ml to 2.5 mg/ml added to 40 ng/ml prothrombin; thrombin activator and substrate added; absorbance 405 nm every 40 seconds; FIG. 1
Description: A Rox prothrombin kit (Distributor: Rossix) was used for the measurement of thrombin activity. After glutathione (Distributor: Nacalai Tesque, Inc.) was added to a 40 ng/ml solution of prothrombin (Distributor: Invitrogen) at a concentration of 500 μg/ml to 2.5 mg/ml, the thrombin activator and thrombin substrate included in the kit were added and thrombin activity was measured.

cultured keratinocytes = conditions: Cryj1 100 ng/ml with glutathione 5 μg/ml
Description: Culture keratinocytes (Distributor: Kurabo) were cultured in the EPILIFE-KG2 medium (Distributor: Kurabo) for two days in a humidified atmosphere at 37° C. For the confluent culture, the medium was replaced with EPILIFE-KG2+Ca1.8 mM (Distributor: Kurabo), and then after 28 to 48 hours of incubation, with EPILIFE-KG2 +Cal containing 5 μM of Fura2 AM (Distributor: life technology), following by one hour of culturing. Then, it was replaced with a buffer (pH 7.4) containing NaCl 150 mM, KCI 5 mM, CaCl2 1.8 mM, MgCl2 1.2 mM, HEPES 25 mM, and D-glucose 10 mM, and Cryj1 (Distributor: HAYASHIBARA) was added to the buffer at the concentration of 100 ng/ml alone, or with glutathione (Distributor: Nacalai Tesque, Inc.) (5 μg/ml). Fluorescence was measured with a fluorescence microscope to measure changes in the intracellular calcium concentration.
The value of intracellular calcium concentration about 2 minutes after the addition of Cryj1 was calculated and quantified using the Aqua Cosmos software.

[1] = test system: epidermal permeation barrier; conditions: previous study, Non-patent Document 2, Patent Document 1; cited from earlier work

Structure (SMILES)	thrombin activity (substrate decomposition rate) (thrombin)	calcium imaging over time (excitation of fluorescence) (cultured keratinocytes; FIG. 2)	intracellular calcium concentration about 2 minutes after the addition of Cryj1 (cultured keratinocytes; FIG. 3)	delay in thrombin-mediated recovery of the epidermal permeation barrier induced by Cryj1 [1]
N[C@@H](CCC(=O)N[C@@H](CS)C(=O)NCC(=O)O)C(=O)O [Glutathione, glutathione]	inhibit thrombin activity in a dose-dependent manner	suppresses the excitation	significantly suppresses the calcium response elicited by Cryj1	
NC[C@H]1CC[C@H](C(=O)O)CC1 [tranexamic acid]				blocks the delay in thrombin-mediated recovery of the epidermal permeation barrier
